Data published in the supplement of paper PMC11997997.

Tests used:
[1] = system: Mycobacterium tuberculosis CDC1551 (intracellular, in murine BMDM); experiment: area under intracellular growth-inhibition dose-response curve (AUC (% inhibition x dose, relative)); higher = more potent; details: duration: 6 days; dose range: 0.13-80 uM, 8 points
Outline: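 Luciferase-expressing M. tuberculosis CDC1551 was used at multiplicity of infection 1 for 1 h to infect primary murine bone marrow-derived macrophages in 384-well opaque plates, 24 h after seeding. Treatment followed for 6 days with an 8-dose, 2.5-fold series at final concentrations of 80–0.13 μM. GraphPad Prism was used to calculate the area under the growth-inhibition dose–response curve from Bright-Glo luciferin readings normalised to a reference drug control and the lowest-concentration wells.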

[2] = system: murine bone marrow-derived macrophages; experiment: area under cytotoxicity dose-response curve (AUC (% cytotoxicity x dose, relative)); higher = more cytotoxic; details: duration: 6 days; dose range: 0.13-80 uM, 8 points
Outline: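 Cytotoxicity is given as the area under the dose–response curve, computed in GraphPad Prism version 10. Primary murine bone marrow-derived macrophages in opaque 384-well plates received an 8-point, 2.5-fold dilution series (final 80–0.13 μM) for 6 days at 37 °C in 5% CO2. Viability was measured by Promega's CellTiter-Glo luminescence assay, with percent cytotoxicity normalised to vehicle and positive control wells.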

Compound	area under intracellular growth-inhibition dose-response curve [1]	area under cytotoxicity dose-response curve [2]
COc1cc(OC)c([N+](=O)[O-])cc1/C=N/NC(=O)c1ccncc1	242	19
CCCCCc1ccc(OCCC[n+]2ccccc2)c(CCCCC)c1.[Cl-]	137	53
NC1CCN(c2c(F)cc3c(=O)c(C(=O)O)cn(C4CC4)c3c2Cl)C1 (stereo unspecified)	210	< 0
Cc1cnc(C(=O)OCC(=O)Nc2cccc3ccccc23)cn1	15.8	< 0
O=C(CCC1CCCC1)NCc1ccccn1	240	< 0
CN(C)[C@@H]1C(=O)C(C(N)=O)=C(O)[C@@]2(O)C(O)=C3C(=O)c4c(O)cccc4[C@@](C)(O)C3[C@H](O)C12.Cl (stereo partly specified)	271	62.5
O=C(NN=Cc1ccc2c(c1)OCO2)c1ccncc1	238	65.5
CCS(=O)(=O)N1CCN(C(=O)CCC2CCCC2)CC1	214	19.5
O=C(NC1CCCCCC1)c1ccco1	214	47.2
O=C(/C=C/c1cccs1)NCc1cccs1	240	34.6
O=C(NCc1cccs1)c1ccc(Br)o1	191	< 0
COc1ccc(CCNC2=C(Cl)C(=O)N(CCc3ccc(OC)c(OC)c3)C2=O)cc1OC	66.8	92.7
CCCCCC(=O)NC(=S)Nc1ccc(NC(=O)c2ccco2)cc1	274	0.441
C=CCNc1nc(C(=O)OCC(=O)NCc2cccc(Cl)c2)cs1	< 0	96
Cc1cccc(-c2nsc(SCC(=O)N3CCCC3)n2)c1	224	98
CC1CCC/C(=N\NC(=O)c2ccncc2)C1 (stereo unspecified)	186	70.8
O=C(OCC(=O)c1ccc(Cl)cc1Cl)c1ccccn1	205	10.1
NC(=S)N/N=C1\CCOc2ccc(F)cc21	232	< 0
C=CCN1/C(=C/c2ccc3cc(C)ccc3[n+]2CC)C=Cc2ccccc21.[Br-]	102	86.8
Cc1ccc(C(=O)N2CCC(C)CC2)cc1C	113	24.4
O=C(CC1CC2CCC1C2)NCc1cccs1 (stereo unspecified)	193	65.1

Compound	area under intracellular growth-inhibition dose-response curve [1]	area under cytotoxicity dose-response curve [2]
Cc1cc(C(C)(C)C)cc(C)c1C[n+]1c2n(c3ccc(C(F)(F)F)cc31)CCCCC2.[Cl-]	138	120
Cc1cccc(-n2c(C)cc(/C=N/NC(N)=S)c2C)c1	235	< 0
Cc1cc(Br)cnc1NC(=S)Nc1ccc(F)cc1F	247	33.7
O=C(COc1ccccc1)NC(=S)Nc1ccc2c(c1)Cc1ccccc1-2	190	74
COc1c(N2CCN(C(=S)NCc3ccccc3)C(C)C2)c(F)cc2c(=O)c(C(=O)O)cn(C3CC3)c12 (stereo unspecified)	165	< 0
O=C(NCCC1=CCCCC1)NC12CC3CC(CC(C3)C1)C2	196	60.3
COc1ccc(CNc2nc3nc4c(c(O)n3n2)CCC4)cc1	140	15.2
CCOC(=O)c1ccccc1OCc1cc(/C=N/NC(=O)c2ccncc2)ccc1OC	269	20.2
Cc1ccc(-n2c(C)cc(/C=N/NC(N)=S)c2C)cc1	233	26
Cc1ccccc1-n1c(SCC(=O)N/N=C/c2c(C)nn(-c3ccccc3)c2C)nc2ccccc2c1=O	203	13.8
Cc1ccc(C)c2sc(N3CCN(C(=O)c4ccc([N+](=O)[O-])o4)CC3)nc12	3.34	33.4
O=C(COC(=O)C1COc2ccccc2O1)Nc1cccc(F)c1 (stereo unspecified)	46.1	< 0
O=C(Sc1cccc2cccnc12)c1ccc(F)cc1	110	125
COc1ccc(NS(=O)(=O)c2cccc(N3CC(=O)C(c4ccccc4)=C3N)c2)cc1	43.8	45.7
O=C(/C=C/c1ccccc1Cl)NCc1ccco1	174	79.7
Cc1cc(C)c2cc(C(=O)Nc3ccc(C)c(F)c3)[nH]c2c1	214	< 0
O=C(CSc1cccc[n+]1[O-])Nc1ccccc1Oc1ccccc1	39.4	53.2
O=Cc1c(Nc2cccc(C(F)(F)F)c2)nc2ccccn2c1=O	234	< 0
BrC(=C\c1ccccc1)/C=N/n1cnnc1	5.21	97.5
O=C(CSc1cccc[n+]1[O-])c1cc(Cl)ccc1Cl	127	47.3
CC(C)c1ccc(NC(=O)NC2CCCCC2)cc1	185	66.5

Compound	area under intracellular growth-inhibition dose-response curve [1]	area under cytotoxicity dose-response curve [2]
CC1CN(c2ccc(NC(=S)Nc3ccc(N4CC(C)OC(C)C4)cc3)cc2)CC(C)O1 (stereo unspecified)	186	17.3
COc1cc(/C=N/NC(=O)c2ccncc2)ccc1O	217	11.1
O=C(c1cc2ccccc2o1)N1CCN(Cc2ccc3c(c2)OCO3)CC1	172	68.3
Cc1oc(-c2cccs2)nc1CSCC(=O)N1CCC2(CC1)OCCO2	48.9	37.4
CC(NC(=O)COC(=O)c1ccc(N2CCCC2=O)cc1)c1ccc(F)cc1 (stereo unspecified)	37.5	< 0
N=C(NCCCCCCNC(=N)NC(=N)Nc1ccc(Cl)cc1)NC(=N)Nc1ccc(Cl)cc1	89.5	165
O=C(NCc1ccc(F)cc1)c1cc2ccccc2o1	254	48.5
Cc1nn(-c2ccccc2)cc1/C=N/NC(N)=S	274	24.4
NC(=S)N/N=C/c1ccc(OC(=O)c2cccnc2)cc1	262	48
CCOc1ccc(C(=O)CCC(=O)NNC(=O)c2ccncc2)cc1	119	49
CCCC(=O)N1CCN(c2ccc(NC(=O)c3ccc([N+](=O)[O-])o3)cc2)CC1	107	129
CCCOc1ccc(C(=O)CCC(=O)NNC(=O)c2ccncc2)cc1	269	< 0
FC(F)Oc1ccc(NC(=S)Nc2ccc3c[nH]nc3c2)cc1	219	< 0
O=Cc1ccc2oc3nc4n(c(=O)c3c(=O)c2c1)CCCS4	111	95.3
CC(=O)Oc1c(C)cc(Cl)cc1C(=O)Nc1ccc([N+](=O)[O-])cc1Cl	230	113
O=C(COc1ccc(Cl)cc1)NNC(=O)c1ccncc1	274	9.09
Cn1c(/C=C/c2ccc([N+](=O)[O-])o2)nc2ccccc2c1=O	85.8	53.2
Cc1cccc(NC(=O)NC2CCCCCCC2)c1	123	95.3
Cc1ccc(C2(C)NC(=O)N(CC(=O)N3c4ccccc4NC(=O)CC3C)C2=O)cc1 (stereo unspecified)	36.2	3.65
O=C(NC1CCCCCC1)c1cccs1	243	< 0
CCN(C(=O)COC(=O)c1nc(Cl)ccc1Cl)c1c(N)n(Cc2ccccc2)c(=O)[nH]c1=O	28.6	73
